Source: US8686044B2, “Amide derivative, pest control agent containing the amide derivative, and use of the amide derivative” (Mitsui Chemicals Agro, Inc., priority 2008, dated 2014)

How the values were obtained:
Assay type in all cases: in vivo
[1] = system: Spodoptera litura; assay: Pesticidal test against Spodoptera litura (cabbage leaf dip); details: foliar, 144 h, concentration 1 ppm, 2-stage larvae, examined after 6 days, 25° C., read-out: pesticidal rate
How it was run: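 Cabbage leaf pieces dipped 30 seconds in compound solution at a predetermined concentration and air-dried, then offered to second-stage larvae, five per group in two replicates. Held at 25° C. Living and dead larvae counted after 6 days.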

[2] = system: Laodelphax striatellus; assay: Pesticidal test against Laodelphax striatellus (rice seedling spray); details: 144 h, concentration 100 ppm, 3-stage larvae, examined after 6 days, 25° C., read-out: pesticidal rate
How it was run: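 Rice seedlings sprayed with 2.5 ml acetone solution of compound at a predetermined concentration, air-dried, then infested with third-stage Laodelphax striatellus larvae in capped water-containing tubes at 25 °C. Living and dead insects counted after 6 days; ten larvae per group, two replicates.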

[3] = system: Plutella xylostella; assay: Pesticidal test against Plutella xylostella (cabbage leaf dip); details: foliar, 144 h, concentration 1 ppm, 2-stage larvae, examined after 6 days, 25° C., read-out: pesticidal rate
How it was run: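 Second-stage larvae (5 per group, two replicates) were released onto air-dried cabbage leaf discs that had been immersed for 30 seconds in compound solution at a set concentration. Mortality was scored after 6 days at 25° C.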

[4] = system: Helicoverpa armigera; assay: Pesticidal test against Helicoverpa armigera (cabbage leaf disk dip); details: foliar, 72 h, concentration 1 ppm, 2-stage larvae, examined after 3 days, 25° C., read-out: pesticidal rate
Procedure: Pesticidal Test against Helicoverpa armigera A cabbage leaf disk was immersed for 30 seconds in a chemical solution in which a test compound had been prepared at a predetermined concentration, and air-dried. The leaf disk was put into a 6-hole plastic cup having a filter paper laid on the bottom thereof, and 2-stage larvae of Helicoverpa armigera were released with one insect being released per hole. They were left to stand in a thermostatic chamber at 25° C., and the numbers of the living pests and the dead pests were examined after 3 days. The test was carried out with five larvae per group in two replicates. Further, the above compound (A) was used as a comparative compound.

[5] = system: Choristoneura magnanima; assay: Pesticidal test against Choristoneura magnanima (artificial feed dip); details: 144 h, concentration 1 ppm, 2-stage larvae, examined after 6 days, 25° C., read-out: pesticidal rate
Procedure: (§1) Pesticidal Test against Choristoneura magnanima A thinly sliced artificial feed was immersed for 30 seconds in a chemical solution in which a test compound had been prepared at a predetermined concentration, and air-dried, and then put into a 7 cm polyethylene cup having a filter paper laid on the bottom thereof, and 2-stage larvae of Choristoneura magnanima were released. They were left to stand in a thermostatic chamber at 25° C., and the numbers of the living pests and the dead pests were examined after 6 days. The test was carried out with five larvae per group in two replicates. Further, the above compound (A) was used as a comparative compound.

[6] = system: Musca domestica; assay: Pesticidal test against Musca domestica (petri dish dry film); details: 24 h, concentration 100 ppm, female adults, examined after 1 day, 25° C., read-out: pesticidal rate
How it was run: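 Female adult houseflies were confined at 25° C in capped 9 cm petri dishes coated with an air-dried film from 1 ml acetone solution of compound (predetermined concentration). Mortality was scored 1 day later, two replicates of five per group.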

[7] = system: Adoxophyes honmai; assay: Pesticidal test against Adoxophyes honmai (artificial feed dip); details: 144 h, 2-stage larvae, examined after 6 days, 25° C., read-out: pesticidal rate; for pest or weed control at 1 ppm: concentration 1 ppm; for pest or weed control at 10 ppm: concentration 10 ppm
Procedure: as §1, with “Adoxophyes honmai” for “Choristoneura magnanima”

O=C(Nc1c(I)cc(C(F)(C(F)(F)F)C(F)(F)C(F)(F)F)cc1I)c1cccc(NC(=O)c2ccccc2F)c1 (centres unmarked) [6-72]
≥ 70%: pest or weed control at 1 ppm [1] | pest or weed control at 100 ppm [2] | pest or weed control at 1 ppm [3] | pest or weed control at 1 ppm [4] | pest or weed control at 1 ppm [5] | pest or weed control at 100 ppm [6] | pest or weed control at 1 ppm [7]

N#Cc1cccc(C(=O)Nc2cccc(C(=O)Nc3c(Br)cc(C(F)(C(F)(F)F)C(F)(F)C(F)(F)F)cc3C(F)(F)F)c2)c1 (centres unmarked) [6-366]
≥ 70%: pest or weed control at 1 ppm [1] | pest or weed control at 1 ppm [3] | pest or weed control at 1 ppm [4] | pest or weed control at 1 ppm [5] | pest or weed control at 100 ppm [6] | pest or weed control at 1 ppm [7]

N#Cc1cccc(C(=O)Nc2cccc(C(=O)Nc3c(Br)cc(C(F)(C(F)(F)F)C(F)(F)C(F)(F)F)cc3C(F)(F)F)c2F)c1 (centres unmarked) [6-1672]
≥ 70%: pest or weed control at 1 ppm [1] | pest or weed control at 100 ppm [2] | pest or weed control at 1 ppm [3] | pest or weed control at 1 ppm [4] | pest or weed control at 1 ppm [5] | pest or weed control at 100 ppm [6] | pest or weed control at 1 ppm [7]

O=C(Nc1c(Br)cc(C(F)(C(F)(F)F)C(F)(F)C(F)(F)F)cc1C(F)(F)F)c1cccc(NC(=O)c2c(F)cccc2F)c1F (centres unmarked) [6-1674]
≥ 70%: pest or weed control at 1 ppm [1] | pest or weed control at 100 ppm [2] | pest or weed control at 1 ppm [3] | pest or weed control at 1 ppm [4] | pest or weed control at 1 ppm [5] | pest or weed control at 1 ppm [7]

O=C(Nc1cccc(C(=O)Nc2c(Br)cc(C(F)(C(F)(F)F)C(F)(F)C(F)(F)F)cc2C(F)(F)F)c1F)c1ccc(Cl)nc1 (centres unmarked) [6-1695]
≥ 70%: pest or weed control at 1 ppm [1] | pest or weed control at 100 ppm [2] | pest or weed control at 1 ppm [3] | pest or weed control at 1 ppm [4] | pest or weed control at 1 ppm [5] | pest or weed control at 100 ppm [6] | pest or weed control at 10 ppm [7]

O=C(Nc1cccc(C(=O)Nc2c(I)cc(C(F)(C(F)(F)F)C(F)(F)C(F)(F)F)cc2C(F)(F)F)c1F)c1ccccc1F (centres unmarked) [6-1809]
≥ 70%: pest or weed control at 1 ppm [1] | pest or weed control at 100 ppm [2] | pest or weed control at 1 ppm [3] | pest or weed control at 1 ppm [4] | pest or weed control at 1 ppm [5] | pest or weed control at 100 ppm [6] | pest or weed control at 1 ppm [7]

N#Cc1cccc(C(=O)Nc2cccc(C(=O)Nc3c(I)cc(C(F)(C(F)(F)F)C(F)(F)C(F)(F)F)cc3C(F)(F)F)c2F)c1 (centres unmarked) [6-1828]
≥ 70%: pest or weed control at 1 ppm [1] | pest or weed control at 100 ppm [2] | pest or weed control at 1 ppm [3] | pest or weed control at 1 ppm [4] | pest or weed control at 1 ppm [5] | pest or weed control at 100 ppm [6] | pest or weed control at 1 ppm [7]

CN(C(=O)c1cccc(C#N)c1)c1cccc(C(=O)Nc2c(Br)cc(C(F)(C(F)(F)F)C(F)(F)C(F)(F)F)cc2C(F)(F)F)c1 (centres unmarked) [7-366]
≥ 70%: pest or weed control at 1 ppm [1] | pest or weed control at 1 ppm [3] | pest or weed control at 1 ppm [4] | pest or weed control at 1 ppm [5] | pest or weed control at 100 ppm [6] | pest or weed control at 1 ppm [7]

CN(C(=O)c1ccc(F)cc1)c1cccc(C(=O)Nc2c(I)cc(C(F)(C(F)(F)F)C(F)(F)F)cc2I)c1F [7-1263]
≥ 70%: pest or weed control at 1 ppm [1] | pest or weed control at 100 ppm [2] | pest or weed control at 1 ppm [3] | pest or weed control at 1 ppm [4] | pest or weed control at 1 ppm [5] | pest or weed control at 10 ppm [7]

CN(C(=O)c1cc(C#N)cc(C#N)c1)c1cccc(C(=O)Nc2c(Br)cc(C(F)(C(F)(F)F)C(F)(F)F)cc2C(F)(F)F)c1F [7-1605]
≥ 70%: pest or weed control at 1 ppm [1] | pest or weed control at 100 ppm [2] | pest or weed control at 1 ppm [3] | pest or weed control at 1 ppm [4] | pest or weed control at 1 ppm [5] | pest or weed control at 1 ppm [7]

CN(C(=O)c1ccc(F)nc1)c1cccc(C(=O)Nc2c(Br)cc(C(F)(C(F)(F)F)C(F)(F)F)cc2C(F)(F)F)c1F [7-1616]
≥ 70%: pest or weed control at 1 ppm [1] | pest or weed control at 100 ppm [2] | pest or weed control at 1 ppm [3] | pest or weed control at 1 ppm [4] | pest or weed control at 1 ppm [5] | pest or weed control at 10 ppm [7]
